# Where two headings read alike, the source gives them in different places.
# Legend:
# [1] = test system: human osteoclasts; test: Cell polarisation (F-actin rings) and resorption by human osteoclasts; format: cell-based
# Text: Number of F-actin rings in osteoclast cultures, expressed as percentage of vehicle (0.1% DMSO) control±SEM (n=4-7 experiments with five replicates for each). ** P<0.01 compared to control, ANOVA with Dunnett's multiple comparison test.
# [2] = molecular target: T1, GPR55 (Homo sapiens, UniProt Q9Y2T6); settings: cited from earlier work
# [3] = molecular target: T1, GPR55; settings: cited from earlier work; for EC50: source per value in footnotes (Johns 2007, Ryberg 2007, Brown 2007), read-out: GTPγS EC50
# [4] = test system: MDA-MB231 subclone; test: Boyden chamber chemotaxis assay, Protocol I (ligand concentration gradient); format: cell-based, human; settings: serum starved cells; test drug (1 μM per Protocol I) in 0.01% DMSO in lower wells; 4 hours
# Protocol: 10 μl of the resulting cell suspension was transferred to a haemocytometer and the number of cells per ml of suspension was calculated from the counted cell number. Serum free medium was added to the cell suspension in a quantity necessary to bring the suspension to a cell number of 1×10^6 cells per ml. […]
# [5] = molecular target: T2, CB2 (Homo sapiens, UniProt P34972); settings: cited from earlier work
# [6] = molecular target: T3, CB1 (Homo sapiens, UniProt P21554); settings: cited from earlier work
# [7] = test system: control (empty vector transfected) MCF7 cells; test: Cultrex Cell Invasion Assay, empty vector transfected MCF7; format: cell-based, human
# Protocol: (§1) Cell were cultured to 80% confluence then serum starved overnight prior to beginning the assay. On ice, a 0.5×BME stock solution was prepared from the 5× stock in a conical tube and inverted to mix. 100 μl of BME stock solution was aliquoted into each well of the 24 well plate and the chamber incubated at 37° C. overnight. The following morning cells were harvested, washed once using 1× wash buffer, counted, and re-suspended to a density of 5×10^5 cells ml^−1. The top chamber was then carefully aspirated, taking care not to let chambers dry out, and 100 μl of cells per well added to the top chamber. 500 μl of media per well (with or without chemoattractant) was then added to the lower wells of the chamber. The chamber was then assembled and incubated at 37° C. in a humidified environment for 24 hours. The following day the upper chamber was carefully aspirated and washed with 100 μl of 1× wash buffer, and lower wells washed with 500 μl of wash buffer. 12 μl of Calcein-AM solution was added to 12 mL of cell dissociation fluid, and 500 μl of this solution added to the lower chamber. The chamber was then re-assembled and incubated at 37° C. for one hour. The upper chamber was then removed, and dissolved Calcein-AM was read at 485 nm excitation, 520 nm emission. […]
# [8] = test system: MDA-MB231 cells; test: Boyden chamber migration towards FBS, Protocol II (pre-treatment of cells); format: cell-based, human; settings: for Tumour cell chemotaxis (migration) to FBS after pre-incubation: 1 μM pre-incubation 30 minutes, 10% FBS, no compound gradient, 4 hours
# Protocol: (§2) Cells used for all chemotaxis assays were bathed in their respective serum-free media and incubated for 19 hours prior to experimentation. The serum starved cells were washed with 5 ml PBS and dissociated from their growth plate using 5 ml of non-enzymatic cell dissociation solution. 5 ml of the respective serum free medium was added after dissociation of the cells, and the cell suspension was transferred to a universal container and centrifuged at 2000 rpm for 5 minutes. The supernatant fluid was discarded and the remaining cell pellet was re-suspended in 2 ml of serum free medium.
# (§3) 10 μl of the resulting cell suspension was transferred to a haemocytometer and the number of cells per ml of suspension was calculated from the counted cell number. Serum free medium was added to the cell suspension in a quantity necessary to bring the suspension to a cell number of 1×10^6 cells per ml.
# (§4) Two aliquots of the 1×10^6 cells/ml, cell suspension were prepared, and quantities of 0.1% DMSO and […] (both with 0.1% DMSO vehicle) were added to one aliquot each, to bring the cell suspension concentrations to 0.01% DMSO and 1 μM test compound (with 0.01% DMSO vehicle). The cell suspensions were incubated with each compound for 30 minutes at 37° C. in 5% CO2. […]
# (§5) Migrated cells were counted using a Leitz microscope. Individual wells and their borders were visualised using a 10× objective lens and cells were then counted using a 40× objective lens. Cells found in one quarter of three non-overlapping 40× fields within each migration well were counted. The same fields were chosen in every well counted. […]
# The results for all assays done with each individual drug type were pooled by calculating the mean number of cells migrating in 0.01% DMSO vehicle control wells. The cell number for each individual well was then expressed as a percentage of the vehicle mean.
# [9] = test system: MDA-MB-231 cells; test: Cultrex Cell Invasion Assay towards FBS; format: cell-based, human; settings: CBD 1 μM pre-incubation; 24 hours
# Protocol: Cell were cultured to 80% confluence then serum starved overnight prior to beginning the assay. On ice, a 0.5×BME stock solution was prepared from the 5× stock in a conical tube and inverted to mix. 100 μl of BME stock solution was aliquoted into each well of the 24 well plate and the chamber incubated at 37° C. overnight. The following morning cells were harvested, washed once using 1× wash buffer, counted, and re-suspended to a density of 5×10^5 cells ml^−1. The top chamber was then carefully aspirated, taking care not to let chambers dry out, and 100 μl of cells per well added to the top chamber. 500 μl of media per well (with or without chemoattractant) was then added to the lower wells of the chamber. The chamber was then assembled and incubated at 37° C. in a humidified environment for 24 hours. The following day the upper chamber was carefully aspirated and washed with 100 μl of 1× wash buffer, and lower wells washed with 500 μl of wash buffer. 12 μl of Calcein-AM solution was added to 12 mL of cell dissociation fluid, and 500 μl of this solution added to the lower chamber. The chamber was then re-assembled and incubated at 37° C. for one hour. The upper chamber was then removed, and dissolved Calcein-AM was read at 485 nm excitation, 520 nm emission.
# [10] = test system: GPR55 over-expressing MCF7 cells; test: Cultrex Cell Invasion Assay, GPR55 over-expressing MCF7; format: cell-based, human
# Protocol: as §1
# [11] = test system: MDA-MB-231 cells; test: alamarBlue assay of cell viability; format: cell-based, human
# [12] = test system: MDA-MB231; test: Boyden chamber chemotaxis assay, CBD as chemoattractant (FIG. 8); format: cell-based, human; settings: serum starved cells; CBD with 0.01% DMSO
# Protocol: as §2, §3
# Solutions of 10% FBS (with 0.01% DMSO vehicle), 0.01% DMSO vehicle control and 1 μM of test drug (O-1602 in 0.01% DMSO vehicle), were prepared. […]
# as §5
# [13] = molecular target: T2, CB2; settings: Ryberg et al., 2007, read-out: GTPγS EC50; cited from earlier work
# [14] = molecular target: T1, GPR55; settings: footnote of Table 1
# [15] = molecular target: T3, CB1; settings: Ryberg et al., 2007, read-out: GTPγS EC50; cited from earlier work
# [16] = molecular target: T1, GPR55; settings: Oka et al., 2007, read-out: ERK Phosphorylation EC50; cited from earlier work
# [17] = test system: MCF7 cells transiently over-expressing GPR55; test: Boyden chamber chemotaxis assay, GPR55 over-expressing MCF7; format: cell-based, human; settings: LPI pre-incubation 1 μM
# Protocol: as §2, §3, §4
# [18] = test system: vector transfected MCF7 cells; test: Boyden chamber chemotaxis assay, vector transfected MCF7; format: cell-based, human; settings: LPI pre-incubation 1 μM
# Protocol: as §2, §3, §4
# [19] = test system: MG-63 cells; test: Endocannabinoid levels in MG-63 cells treated with PTH; format: cell-based, human
# Protocol: Cells were washed in PBS and treated for 90 minutes with 200 ug/ml LPS. Values represent the mean±SEM from 3 separate donors. […] Levels of anandamide were undetectable in two control samples which precludes statistical analysis. (C) 2-AG levels in MG-63 cells treated with PTH. Cells were treated for the times indicated with 40 nM or 100 nM PTH. The results are expressed as percentage of control and are the means±SEM (n=2-4 experiments, duplicate samples for each), ** P<0.01 compared to control, ANOVA with Dunnett's multiple comparison test.
# T3 sequence (P21554 whole entry, species assumed): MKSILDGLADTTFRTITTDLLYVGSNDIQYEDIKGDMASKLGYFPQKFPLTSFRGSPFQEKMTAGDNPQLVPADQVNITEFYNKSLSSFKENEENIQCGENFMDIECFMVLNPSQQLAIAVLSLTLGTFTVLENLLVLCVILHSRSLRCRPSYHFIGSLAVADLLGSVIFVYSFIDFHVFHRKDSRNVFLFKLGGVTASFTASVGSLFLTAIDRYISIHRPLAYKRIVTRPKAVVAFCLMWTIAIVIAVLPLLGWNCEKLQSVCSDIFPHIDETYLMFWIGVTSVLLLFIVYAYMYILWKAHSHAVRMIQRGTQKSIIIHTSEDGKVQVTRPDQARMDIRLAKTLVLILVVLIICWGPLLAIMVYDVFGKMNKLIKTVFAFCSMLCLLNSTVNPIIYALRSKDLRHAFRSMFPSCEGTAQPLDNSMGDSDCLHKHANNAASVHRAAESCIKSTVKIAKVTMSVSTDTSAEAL
# T2 sequence (P34972 whole entry, species assumed): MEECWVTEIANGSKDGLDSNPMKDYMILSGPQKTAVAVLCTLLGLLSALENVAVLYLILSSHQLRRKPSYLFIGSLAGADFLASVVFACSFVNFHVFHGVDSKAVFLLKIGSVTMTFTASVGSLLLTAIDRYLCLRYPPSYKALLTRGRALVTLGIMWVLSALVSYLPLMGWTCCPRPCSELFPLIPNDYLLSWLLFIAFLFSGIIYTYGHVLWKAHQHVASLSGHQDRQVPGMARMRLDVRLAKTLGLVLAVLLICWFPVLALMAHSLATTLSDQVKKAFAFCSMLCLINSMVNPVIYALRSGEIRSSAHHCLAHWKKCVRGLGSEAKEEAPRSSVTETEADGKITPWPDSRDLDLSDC
# T1 sequence (Q9Y2T6 whole entry): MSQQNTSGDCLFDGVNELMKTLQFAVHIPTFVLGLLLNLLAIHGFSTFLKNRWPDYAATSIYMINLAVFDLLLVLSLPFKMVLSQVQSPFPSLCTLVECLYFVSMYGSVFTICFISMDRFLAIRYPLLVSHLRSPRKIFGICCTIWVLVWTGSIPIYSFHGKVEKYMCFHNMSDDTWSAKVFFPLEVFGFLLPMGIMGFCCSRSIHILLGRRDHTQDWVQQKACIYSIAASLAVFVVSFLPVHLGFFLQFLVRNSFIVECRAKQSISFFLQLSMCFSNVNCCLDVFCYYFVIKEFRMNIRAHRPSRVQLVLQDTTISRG
molecule,measurement,setting,value
CCCCC/C=C\C/C=C\C/C=C\C/C=C\CCCC(=O)OC(CO)CO [2-AG],Resorptive activity,[1]; 10 nM and 100 nM,significant increase
same,Cell polarisation i.e. number of F-actin rings,"[1]; 10 nM and 100 nM, 5 days",significant increase
same,Stimulatory effect on polarisation and resorption at higher concentration,[1]; 1 μM,lost
"CCCCC/C=C\C/C=C\C/C=C\C/C=C\CCCC(=O)NCCO [AEA, anandamide]",Drug action on receptors: GPR55,[2],Agonist
same,F-actin ring number,[1]; 10 nM to 1 μM,did not result in a significant change
same,Resorption,[1]; 10 nM to 1 μM,significantly stimulate
same,EC50,[3],18 nM
same,Cell migration compared to vehicle control (chemoattractant effect),[4],significant increase in cell number
same,Drug action on receptors: CB2,[5],Agonist
"C=C(C)[C@@H]1CCC(C)=C[C@H]1c1c(O)cc(CCCCC)cc1O [CBD, Cannabidiol]",Drug action on receptors: GPR55,[2],Antagonist^2
same,IC50,"[3]; antagonist, Brown, 2007, read-out: GTPγS IC50",350 nM
same,Drug action on receptors: CB1,[6],Antagonist^7
same,Basal invasion,[7],no effect
same,Tumour cell chemotaxis (migration) to FBS after pre-incubation,[8],significantly inhibits
same,Effect on LPI-increased chemotaxis to FBS,[8]; co-incubation LPI (1 μM) combined with CBD (1 μM),prevented
same,Tumour cell invasion towards FBS after pre-incubation,[9],significantly attenuated
same,FBS-induced invasion,[10],significantly inhibited
same,Cytotoxic action (cell viability),[11]; 1 μM treatment for 24 hours (invasion assay),no cytotoxic action
same,Cytotoxic action (cell viability),"[11]; concentrations up to 10 μM, treatment for 4 hours (migration assay)",no cytotoxic action
same,Tumour cell migration compared to control (chemoattractant effect),[12],no effect on tumour cell migration
"CCCCCCC(C)(C)c1ccc([C@@H]2C[C@H](O)CC[C@H]2CCCO)c(O)c1 [CP55940, (−)-cis-3-[2-hydroxy-4-(1,1-dimethylheptyl)phenyl]-trans-4-(3-hydroxypropyl)cyclohexanol]",Drug action on receptors: GPR55,[2],agonists
CCCn1c(C)c(C(=O)c2cccc3ccccc23)c2ccccc21 [JWH015],Drug action on receptors: GPR55,[2],Agonist
same,EC50,[3],4 nM
C=C(C)[C@@H]1CCC(C)=C[C@H]1c1c(C)cc(O)cc1O [O-1602],EC50,[13],> 30000 nM
same,Drug action on receptors: GPR55,[2],Agonist
same,Cell migration compared to vehicle control (chemoattractant effect),[4],significant increase in cell migration
same,Drug action on receptors: CB1,[6],No action^3
same,Selectivity for GPR55 versus CB1 and CB2 (in words),[14],"Compounds such as O-1602 and LPI are therefore thought to be relatively selective GPR55 agonists, whilst AEA has a broad specificity."
same,EC50,[15],> 30000 nM
same,Drug action on receptors: CB2,[5],No action
"CCCCCc1cc(O)c2c(c1)OC(C)(C)[C@@H]1CCC(C)=C[C@@H]21 [THC, Δ-9-Tetrahydrocannabinol]",Drug action on receptors: GPR55,[2],agonists
lysophosphatidylinositol [LPI],Drug action on receptors: GPR55,[2],Agonist^6
same,EC50,[16],~200 nM
same,FBS-induced migration,[17],enhanced
same,Migration towards FBS,[18],unaffected
same,Selectivity for GPR55 versus CB1 and CB2 (in words),[14],"Compounds such as O-1602 and LPI are therefore thought to be relatively selective GPR55 agonists, whilst AEA has a broad specificity."
same,Tumour cell chemotaxis (migration) to FBS after pre-incubation,[8],significantly increases
"PTH: PTH, 40 nM or 100 nM, activates the PTH receptor (peptide, UniProt P01270 32-115, looked up, Parathyroid hormone) Parathyroid hormone: SVSEIQLMHNLGKHLNSMERVEWLRKKLQDVHNFVALGAPLAPRDAGSQRPRKKEDNVLVESHEKSLGEADKADVNVLTKAKSQ",Levels of 2-AG detected in MG-63 cells,[19]; prolonged treatment with 40 nM or 100 nM PTH,significant increase
same,Levels of anandamide detected in MG-63 cells,"[19]; prolonged treatment with PTH, data not shown",no change
